Laboratory results: patent US12728149B2, “Pharmaceutical composition for preventing and treating depression, comprising herbal medicine complex extracts of Zizyphi spinosi Semen, Jujubae Fructus, Hordei Fructus Germinatus, Glycyrrhizae Radix et Rhizoma, Angelicae Gigantis Radix, and Beta vulgaris as active ingredients” (INDUSTRY-ACADEMIC COORPERATION FOUNDATION DAEGU HAANY …, priority 2023, dated 2026)

Legend:
mice [1] = assay: Forced swimming test (FST); type: in vivo
Protocol: (§1) All animal experiment procedures of the present disclosure were conducted in compliance with the preliminary review and ethics regulations of the Animal Experiment Ethics Committee of Daegu Haany University. 4-week-old male ICR mice (SPF/VAF CrljBgi:CD-1) were supplied from the Daehan Biolink (Chungcheongbuk-do, Korea), and adapted and used for 7 days in the pharmacology animal laboratory of Daegu Haany University. Each group consisted of 8 mice, and 5 mice were housed in polycarbonate mice cages and bred in a breeding room where a temperature of 23±1° C., humidity of 50±5%, and lighting time of 07:00 to 19:00 (12-hour cycle) were kept constant. During the adaptation period, feed and water were supplied without restrictions. […]
(§2) In order to verify whether there was an antidepressant effect of the herbal medicine complex extracts of Zizyphi spinosi Semen, Jujubae Fructus, Hordei Fructus Germinatus, Glycyrrhizae Radix et Rhizoma, Angelicae Gigantis Radix, and Beta vulgaris of the present disclosure, a forced swimming test (FST) was performed using experimental animals. The antidepressant effect was determined by measuring the immobility time during the forced swimming test, and it was meant that shorter the immobility time, the greater the antidepressant effect. […]

mice [2] = assay: Tail suspension test (TST); type: in vivo
Protocol: as §1
as §2, with “tail suspension” for “forced swimming”, “(TST)” for “(FST)”, “experimental animals with tails alternated mobility and immobility, and the” for “it was meant that”, “there was” for “the greater”

[3] = imipramine 15 mg/kg intraperitoneally

CN(C)CCCN1c2ccccc2CCc2ccccc21 [Imipramine, imipramine]
immobility time compared to the control group (mice [1]; [3]): reduced | Immobility time (mice [1]; measured for 4 minutes, imipramine 15 mg/kg intraperitoneally for 1 week, test 30 minutes after administration on day 7): 177.01 ± 5.67 s | immobility time compared to the control group (mice [2]; [3]): decreased | Immobility time (mice [2]; measured for 10 minutes, imipramine 15 mg/kg intraperitoneally for 1 week): 157.82 ± 11.02 s
